Measurements from patent US6506769B2, “Heterocyclic compounds useful as inhibitors of tyrosine kinases” (Boehringer Ingelheim Pharmaceuticals, Inc., priority 1999, dated 2003).

melting point | Structure (SMILES)
290 to 292 °C | CC1(C)C(=O)NC(=O)c2c1ccc1nc(Nc3c(Cl)cccc3Cl)[nH]c21 [Example 1, 2-(2,6-Dichlorophenylamino)-6,6-dimethyl-1H,6H-imidazo[4,5-h]isoquinoline-7,9-dione]
287 to 290 °C | CC1(C)CNC(=O)c2c1ccc1nc(Nc3c(Cl)cccc3Cl)[nH]c21 [Example 2, 2-(2,6-Dichlorophenylamino)-6,6-dimethyl-7,8-dihydro-1H,6H-imidazo[4,5-h]isoquinoline-9-one]
> 300 °C | Cc1[nH]c(=O)c2c(ccc3nc(Nc4c(Cl)cccc4Cl)[nH]c32)c1C [Example 3a, 2-(2,6-Dichlorophenylamino)-6,7-dimethyl-1,8-dihydro-imidazo[4,5-h]isoquinoline-9-one]
> 300 °C | CC1(C)C(=O)NC(=O)c2c1ccc1nc(Nc3c(Cl)cccc3Cl)sc21 [Example 5, 2-(2,6-Dichlorophenylamino)-6,6-dimethyl-6H-thiazolo[4,5-h]isoquinoline-7,9-dione]
> 300 °C | Cc1[nH]c(=O)c2c(ccc3nc(Nc4c(Cl)cccc4Cl)n(C)c32)c1CC(=O)N1CCOCC1 [Example 7, 2-(2,6-Dichlorophenylamino)-1,7-dimethyl-6-(2-morpholin-4-yl-2-oxoethyl)-1,8-dihydro-imidazo[4,5-h]isoquinoline-9-one]
285 to 290 °C | Cc1[nH]c(=O)c2c(ccc3nc(Nc4c(Cl)cccc4Cl)n(C)c32)c1CCN1CCOCC1 [Example 8, 2-(2,6-Dichlorophenylamino)-1,7-dimethyl-6-(2-morpholin-4-yl-ethyl)-1,8-dihydro-imidazo[4,5-h]isoquinoline-9-one]
280 to 285 °C (dec.) | CCOC(=O)Cc1c(C)[nH]c(=O)c2c1ccc1nc(Nc3c(Cl)cccc3Cl)n(C)c12 [Example 9, 2-(2,6-Dichlorophenylamino)-1,7-dimethyl-9-oxo-1,8-dihydro-imidazo[4,5-h]isoquinolin-6-yl acetic acid ethyl ester]
> 300 °C | Cc1[nH]c(=O)c2c(ccc3nc(Nc4c(Cl)cccc4Cl)n(C)c32)c1CCO [Example 10, 2-(2,6-Dichlorophenylamino)-1,7-dimethyl-6-(2-hydroxyethyl)-1,8-dihydro-imidazo[4,5-h]isoquinoline-9-one]
> 300 °C | COC(=O)/C=C/c1[nH]c(=O)c2c(ccc3nc(Nc4c(Cl)cccc4Cl)n(C)c32)c1C [Example 12, 3-[2-(2,6-Dichlorophenylamino)-1,6-dimethyl-9-oxo-8,9-dihydro-1H-imidazo[4,5-h]isoquinolin-7-yl]-acrylic acid methyl ester]
298 to 300 °C | Cc1c(/C=C/CO)[nH]c(=O)c2c1ccc1nc(Nc3c(Cl)cccc3Cl)n(C)c12 [Example 14, 2-(2,6-Dichlorophenylamino)-1,6-dimethyl-7-(3-hydroxy-propen-1-yl)-1,8-dihydro-imidazo[4,5-h]isoquinolin-9-one]
> 300 °C | C=Cc1[nH]c(=O)c2c(ccc3nc(Nc4c(Cl)cccc4Cl)n(C)c32)c1C [Example 15, 2-(2,6-Dichlorophenylamino)-1,6-dimethyl-7-vinyl-1,8-dihydro-imidazo[4,5-h]isoquinoline-9-one]
235 to 236 °C | C=CC(O)c1[nH]c(=O)c2c(ccc3nc(Nc4c(Cl)cccc4Cl)n(C)c32)c1C (stereo not shown) [Example 16, 2-(2,6-Dichlorophenylamino)-1,6-dimethyl-7-(1-hydroxyprop-2-en-1-yl)-1,8-dihydro-imidazo[4,5-h]isoquinolin-9-one]
175 to 177 °C | Cc1c(/C=C/CN2CCOCC2)[nH]c(=O)c2c1ccc1nc(Nc3c(Cl)cccc3Cl)n(C)c12 [Example 18, 2-(2,6-Dichlorophenylamino)-1,6-dimethyl-7-(3-morpholin-4-yl-propen-1-yl)-1,8-dihydro-imidazo[4,5-h]-isoquinolin-9-one]
231 to 234 °C | Cc1c(CNCc2ccccc2)[nH]c(=O)c2c1ccc1nc(Nc3c(Cl)cccc3Cl)n(C)c12 [Example 19, 7-Benzylaminomethyl-2-(2,6-dichlorophenylamino)-1,6-dimethyl-1,8-dihydro-imidazo[4,5-h]-isoquinolin-9-one]
> 300 °C | Cc1c(-c2cnco2)[nH]c(=O)c2c1ccc1nc(Nc3c(Cl)cccc3Cl)n(C)c12 [Example 20, 2-(2,6-Dichlorophenylamino)-1,6-dimethyl-7-oxazol-5-yl-1,8-dihydro-imidazo[4,5-h]isoquinolin-9-one]
> 300 °C | Cc1c(-c2cncn2C)[nH]c(=O)c2c1ccc1nc(Nc3c(Cl)cccc3Cl)n(C)c12 [Example 21, 2-(2,6-Dichlorophenylamino)-1,6-dimethyl-7-(3-methyl-3H-imidazol-4-yl)-1,8-dihydro-imidazo[4,5-h]isoquinolin-9-one]
> 300 °C | O=c1[nH]c2ccccc2c2ccc3nc(Nc4c(Cl)cccc4Cl)[nH]c3c12 [Example 26, 2-(2,6-Dichlorophenylamino)-3,5-dihydro-imidazo[4,5-i]phenanthridin-4-one]
> 300 °C (dec.) | Cn1c(Nc2c(Cl)cccc2Cl)nc2ccc3c4c([nH]c(=O)c3c21)CCC4 [Example 27, 2-(2,6-Dichlorophenylamino)-3-methyl-5,6,7,8-tetrahydro-3H-1,3,5-triaza-dicyclopenta[a,f]naphthalen-4-one]
> 300 °C | Cc1c(/C=C/CN)[nH]c(=O)c2c1ccc1nc(Nc3c(Cl)cccc3Cl)n(C)c12 [Example 28, 7-(3-Aminopropen-1-yl)-2-(2,6dichlorophenylamino)-1,6-dimethyl-1,8-dihydro-imidazo[4,5-h]-isoquinolin-9-one]
